Laboratory results as given in ChEMBL document CHEMBL5143508, “Design, synthesis and biological evaluation of novel o-aminobenzamide derivatives as potential anti-gastric cancer agents in vitro and in vivo” (Eur J Med Chem, 2022).
Active and inactive are the calls of the source. The rule behind the calls is not given here.

Columns and labels:
HGC-27 [1] = assay: Induction of cell cycle arrest in human HGC-27 cells assessed as upregulation of p27 expression at 0.5 to 8 uM incubated for 48 hrs by Western blot analysis; assay type: functional, cell-based; conditions: dose 0.5-8 µM
HGC-27 [2] = assay: Induction of apoptosis in human HGC-27 cells assessed as viable cells at 0.5 uM incubated for 48 hrs by annexin V FITC/propidium iodide staining based flow cytometry (reference value: 93.0 %); assay type: functional; conditions: read-out: Activity
HGC-27 [3] = assay: Induction of apoptosis in human HGC-27 cells assessed as upregulation in cytochrome c expression at 0.5 to 8 uM incubated for 48 hrs by Western blot analysis; assay type: functional, cell-based; conditions: dose 0.5-8 µM
MGC-803 [4] = assay: Induction of apoptosis in human MGC-803 cells assessed as necrotic cells at 2.5 uM incubated for 48 hrs by annexin V FITC/propidium iodide staining based flow cytometry (reference value: 1.06 %); assay type: functional
HGC-27 [5] = assay: Induction of apoptosis in human HGC-27 cells assessed as necrotic cells at 8 uM incubated for 48 hrs by annexin V FITC/propidium iodide staining based flow cytometry (reference value: 1.24 %); assay type: functional
MGC-803 [6] = assay: Induction of apoptosis in human MGC-803 cells assessed as early apoptotic cells at 2.5 uM incubated for 48 hrs by annexin V FITC/propidium iodide staining based flow cytometry (reference value: 0.42 %); assay type: functional
MGC-803 [7] = assay: Induction of apoptosis in human MGC-803 cells assessed as viable cells at 2.5 uM incubated for 48 hrs by annexin V FITC/propidium iodide staining based flow cytometry (reference value: 94.4 %); assay type: functional; conditions: read-out: Activity
HGC-27 [8] = assay: Induction of apoptosis in human HGC-27 cells assessed as late apoptotic cells at 0.5 uM incubated for 48 hrs by annexin V FITC/propidium iodide staining based flow cytometry (reference value: 5.14 %); assay type: functional
HGC-27 [9] = assay: Induction of apoptosis in human HGC-27 cells assessed as late apoptotic cells at 2 uM incubated for 48 hrs by annexin V FITC/propidium iodide staining based flow cytometry (reference value: 5.14 %); assay type: functional
MGC-803 [10] = assay: Induction of cell cycle arrest in human MGC-803 cells assessed as reduction in accumulation of cells at S phase at 2.5 to 10 uM incubated for 24 hrs by PI staining based flow cytometry analysis; assay type: functional; conditions: dose 2.5-10 µM
MGC-803 [11] = assay: Induction of apoptosis in human MGC-803 cells assessed as late apoptotic cells at 2.5 uM incubated for 48 hrs by annexin V FITC/propidium iodide staining based flow cytometry (reference value: 4.07 %); assay type: functional
HGC-27 [12] = assay: Induction of apoptosis in human HGC-27 cells assessed as viable cells at 2 uM incubated for 48 hrs by annexin V FITC/propidium iodide staining based flow cytometry (reference value: 93.0 %); assay type: functional; conditions: read-out: Activity
HGC-27 [13] = assay: Induction of apoptosis in human HGC-27 cells assessed as necrotic cells at 0.5 uM incubated for 48 hrs by annexin V FITC/propidium iodide staining based flow cytometry (reference value: 1.24 %); assay type: functional
[14] = Acute toxicity in Kunming mouse assessed as effect on kidney pathology at 1000 mg/kg, po measured after 14 days; assay type: organism-based; conditions: in vivo, 336 h, time 14 day
HGC-27 [15] = assay: Induction of apoptosis in human HGC-27 cells assessed as viable cells at 0.4 uM incubated for 48 hrs by annexin V FITC/propidium iodide staining based flow cytometry (reference value: 93.0 %); assay type: functional; conditions: read-out: Activity
MGC-803 [16] = assay: cells; assay type: functional, cell-based; conditions: Homo sapiens, MGC-803, 72 h
Description: Cytotoxicity against human MGC-803 cells assessed as inhibition of cell growth incubated for 72 hrs by MTT assay

HGC-27 [17] = assay: Induction of apoptosis in human HGC-27 cells assessed as upregulation in cleaved caspase-9 expression at 0.1 to 1.6 uM incubated for 48 hrs by Western blot analysis; assay type: functional, cell-based; conditions: dose 0.1-1.6 µM
MGC-803 [18] = assay: Induction of apoptosis in human MGC-803 cells assessed as early apoptotic cells at 20 uM incubated for 48 hrs by annexin V FITC/propidium iodide staining based flow cytometry (reference value: 0.42 %); assay type: functional
[19] = Toxicity in BALB/c mouse xenografted with human HGC-27 cells assessed as hematocrit level at 75 mg/kg, po bid for 19 days; assay type: organism-based; conditions: in vivo, 456 h, time 19 day
HGC-27 [20] = assay: Induction of apoptosis in human HGC-27 cells assessed as upregulation in cleaved caspase-3 expression at 0.1 to 1.6 uM incubated for 48 hrs by Western blot analysis; assay type: functional, cell-based; conditions: dose 0.1-1.6 µM
HGC-27 [21] = assay: Induction of apoptosis in human HGC-27 cells assessed as upregulation in cleaved PARP expression at 0.1 to 1.6 uM incubated for 48 hrs by Western blot analysis; assay type: functional, cell-based; conditions: dose 0.1-1.6 µM
HGC-27 [22] = assay: Induction of apoptosis in human HGC-27 cells assessed as viable cells at 1.6 uM incubated for 48 hrs by annexin V FITC/propidium iodide staining based flow cytometry (reference value: 93.0 %); assay type: functional; conditions: read-out: Activity
HGC-27 [23] = assay: cells; assay type: functional, cell-based; conditions: Homo sapiens, HGC-27, 72 h
Description: Cytotoxicity against human HGC-27 cells assessed as inhibition of cell growth incubated for 72 hrs by MTT assay

HGC-27 [24] = assay: Induction of cell cycle arrest in human HGC-27 cells assessed as upregulation of p21 expression at 0.1 to 1.6 uM incubated for 48 hrs by Western blot analysis; assay type: functional, cell-based; conditions: dose 0.1-1.6 µM
MGC-803 [25] = assay: Induction of apoptosis in human MGC-803 cells assessed as viable cells at 20 uM incubated for 48 hrs by annexin V FITC/propidium iodide staining based flow cytometry (reference value: 94.4 %); assay type: functional; conditions: read-out: Activity
SGC-7901 = assay: cells; assay type: functional, cell-based; conditions: Homo sapiens, SGC-7901, 72 h
Description: Cytotoxicity against human SGC-7901 cells assessed as inhibition of cell growth incubated for 72 hrs by MTT assay

[26] = Toxicity in BALB/c mouse xenografted with human HGC-27 cells assessed as red blood cell distribution width at 75 mg/kg, po bid for 19 days; assay type: organism-based; conditions: in vivo, 456 h, time 19 day
AGS = assay: cells; assay type: functional, cell-based; conditions: Homo sapiens, 72 h
Description: Cytotoxicity against human AGS cells assessed as inhibition of cell growth incubated for 72 hrs by MTT assay

MGC-803 [27] = assay: Induction of cell cycle arrest in human MGC-803 cells assessed as reduction in accumulation of cells at S phase at 5 to 20 uM incubated for 24 hrs by PI staining based flow cytometry analysis; assay type: functional; conditions: dose 5-20 µM
HGC-27 [28] = assay: Induction of apoptosis in human HGC-27 cells assessed as upregulation in cytochrome c expression at 0.1 to 1.6 uM incubated for 48 hrs by Western blot analysis; assay type: functional, cell-based; conditions: dose 0.1-1.6 µM
[29] = Acute toxicity in Kunming mouse assessed as effect on spleen pathology at 1000 mg/kg, po measured after 14 days; assay type: organism-based; conditions: in vivo, 336 h, time 14 day
HGC-27 [30] = assay: In vivo induction of apoptosis in human HGC-27 cells xenografted in BALB/c mouse assessed as increase in cleaved caspase-3 expression at 75 to 150 mg/kg , po bid administered for 19 days and measured by immunohistochemical analysis; assay type: functional, organism-based; conditions: dose 75-150 mg/kg, time 19.0 day
[31] = Acute toxicity in Kunming mouse assessed as effect on lung pathology at 1000 mg/kg, po measured after 14 days; assay type: organism-based; conditions: in vivo, 336 h, time 14 day
[32] = Toxicity in BALB/c mouse xenografted with human HGC-27 cells assessed as granulocyte level at 75 mg/kg, po bid for 19 days; assay type: organism-based; conditions: in vivo, 456 h, time 19 day
[33] = Acute toxicity in Kunming mouse assessed as mouse survival at 1000 mg/kg, po measured after 14 days; assay type: organism-based; conditions: in vivo, 336 h, time 14 day

In the case of `O=C(NCc1ccc(NC(=O)c2ccccc2N2CCCC2)cc1)OCc1cccnc1`, the Activity (HGC-27 [1]) is reported as “Active”, the viability at 0.5 µM (HGC-27 [2]) is reported as 79.1% and the Activity (HGC-27 [3]) is reported as “Active”. For the same molecule, the Activity (MGC-803 [4]) was 4.32%, the Activity (HGC-27 [5]) was 11.1% and the Activity (MGC-803 [6]) was 0.85%. For the same molecule, the viability at 2.5 µM (MGC-803 [7]) was 80.3%, the Activity (HGC-27 [8]) was 17.4% and the Activity (HGC-27 [9]) was 55.9%. For the same molecule, the Activity (MGC-803 [10]) was “Active”, the Activity (MGC-803 [11]) was 14.6% and the viability at 2 µM (HGC-27 [12]) was 30.4%. It also gave an Activity (HGC-27 [13]) of 2.55%.

In the case of `O=C(NCc1ccc(NC(=O)c2cc(F)ccc2N2CCCC2)cc1)OCc1cccnc1`, the Activity [14] is reported as “Non-Toxic”, the viability at 0.4 µM (HGC-27 [15]) is reported as 70.7% and the IC50 (MGC-803 [16]) is reported as 10.7 µM. For the same molecule, the Activity (HGC-27 [17]) was “Active”, the Activity (MGC-803 [18]) was 16.8% and the Activity [19] was 58.3%. The Activity (HGC-27 [20]) was “Active”, the Activity (HGC-27 [21]) was “Active” and the viability at 1.6 µM (HGC-27 [22]) was 13.4%. For the same molecule, the IC50 (HGC-27 [23]) was 0.28 µM, the Activity (HGC-27 [24]) was “Active” and the viability at 20 µM (MGC-803 [25]) was 60.7%. For the same molecule, the IC50 (SGC-7901) was 44.8 µM, the Activity [26] was 24.4% and the IC50 (AGS) was 23.3 µM. For the same molecule, the Activity (MGC-803 [27]) was “Active”, the Activity (HGC-27 [28]) was “Active” and the Activity [29] was “Non-Toxic”. For the same molecule, the Activity (HGC-27 [30]) was “Active”, the Activity [31] was “Non-Toxic” and the Activity [32] was 91.4%. The Activity [33] was “Non-Toxic”.
